Key:
[1] = tested on: collagenase-induced intrastriatal hemorrhage (ICH); test: Hematoma (hemorrhagic lesion) volume in collagenase-induced ICH rat model; type: in vivo; details: for Protection (%) ICH core / Protection (%) Peri-ICH: mean ± SEM
From the text: All animals received humane care in compliance with the institute's guidelines as outlined in “Guide for the Care and Use of Laboratory Animals” prepared by the National Academy of Sciences and published by the National Institutes of Health (NIH publication no. 86-23, revised 1985). Female Sprague-Dawley rats (250-300 grams (g); Harlan Sprague-Dawley, Inc., Indianapolis, Ind.) were anesthesized with an intramuscular injection of a mixture of ketamine and xylazine and set in supine in a Kopf headholder. The right carotid artery, external and internal branches, was exposed and the distal end of the external carotid freed and retracted to line with the internal carotid. A PE-10 polyethylene tube (Becton-Dickinson, Sparks, Md.) was then introduced from the external into the internal carotid artery, and the former was ligated to hold the tube. TUDCA (Calbiochem-Novabiochem Corp., San Diego, Calif.) was dissolved in phosphate buffer, pH 7.4 at […] milligrams per milliliter (mg/ml). Saline or TUDCA solution (1 milliliter per kilogram body weight (ml/kg bw)) were injected directly into the internal carotid artery, within 5 minutes. Different concentrations of TUDCA (10, 50, 100, and 200 mg/kg bw) were administered 1 hour prior to, or 1, 3, and 6 hours after collagenase injection. The polyethylene tube was finally removed, the end of the external carotid artery cauterized, and the wound closed. To induce stroke injury, the animals were placed in a stereotaxic apparatus and ICH induced by collagenase infusion (Rosenberg et al., Stroke 1990;21:801-807 and Chesney et al., Stroke 1995;26:312-316). In brief, a midline incision was made through the scalp to expose the skull. […] (0.5 microliters per minute (μL/min)) of saline containing 0.5 unit (U) bacterial collagenase (type VII; Sigma Chemical Co., St. Louis, Mo.) was made stereotaxically into the striatum with a 10-μl Hamilton syringe at the following coordinates: 0.4 millimeter (mm) anterior and 3.0 mm lateral to bregma and 5.0 mm ventral to the cortical surface. Once the infusion was complete, the Hamilton syringe was left in place for 3 minutes. Body temperature was maintained at 37° C. with a CMA/150 temperature controller throughout the surgery. The rats recovered from surgery in a cage containing food and heated by an incandescent light bulb. Neurological testing was performed at 2 days after induction of ICH. The animals were then sacrificed, and the brains removed and frozen at −70° C. for either serial cryostat sectioning, or RNA and protein extraction. In a subset of animals, serum and brain samples were collected for bile acid analysis.
After behavioral testing, rats were sacrificed and the brains removed for serial cryostat sectioning. Volumes of hemorrhagic lesion, including core and peri-ICH regions, were quantitated using unbiased stereologic volumetric analysis of 20-μm cryostat sections after staining according to the Nissl protocol. Volumetric analysis was performed according to Cavalieri's method (Howard et al, Unbiased stereology: three-dimensional measurement in microscopy. New York: BIOS Scientific Publishers Ltd 1998). The areas of lesion were determined in 11 Nissl-stained sections 20 μm in thickness, 900 μm apart, from each animal. Volumes (mm^3) were calculated according to the formula V=T×a/p×ΣPi, where V=volume of interest, T=distance between sections (mm), a/p=area associated with each point (mm^2), and Pi=points hitting object in each section.

collagenase-induced ICH = test: Neurological testing: apomorphine-induced rotational behavior after ICH; type: in vivo, rat; details: 2 days after ICH; vehicle approximately 20
From the text: (§1) All animals received humane care in compliance with the institute's guidelines as outlined in “Guide for the Care and Use of Laboratory Animals” prepared by the National Academy of Sciences and published by the National Institutes of Health (NIH publication no. 86-23, revised 1985). Female Sprague-Dawley rats (250-300 grams (g); Harlan Sprague-Dawley, Inc., Indianapolis, Ind.) were anesthesized with an intramuscular injection of a mixture of ketamine and xylazine and set in supine in a Kopf headholder. The right carotid artery, external and internal branches, was exposed and the distal end of the external carotid freed and retracted to line with the internal carotid. A PE-10 polyethylene tube (Becton-Dickinson, Sparks, Md.) was then introduced from the external into the internal carotid artery, and the former was ligated to hold the tube. […]
The animals were tested for rotational behavior in response to apomorphine 2 days after surgery. Apomorphine (1 mg/kg bw; Sigma Chemical Co.) was injected subcutaneously, and rotations were determined by a computer-controlled Columbus Instruments Videomex-V system (Columbus, Ohio). […] Step initiation was assessed at 2 days after ICH by independently analyzing stepping behavior in the left and right forelimbs. […] The number of steps initiated by each limb was counted during a 1-minute period.

[2] = tested on: TUNEL-positive (apoptotic) cells in hemisphere ipsilateral to ICH; test: TUNEL staining of apoptotic cells in ICH rat brain; type: in vivo
From the text: All animals received humane care in compliance with the institute's guidelines as outlined in “Guide for the Care and Use of Laboratory Animals” prepared by the National Academy of Sciences and published by the National Institutes of Health (NIH publication no. 86-23, revised 1985). Female Sprague-Dawley rats (250-300 grams (g); Harlan Sprague-Dawley, Inc., Indianapolis, Ind.) were anesthesized with an intramuscular injection of a mixture of ketamine and xylazine and set in supine in a Kopf headholder. The right carotid artery, external and internal branches, was exposed and the distal end of the external carotid freed and retracted to line with the internal carotid. A PE-10 polyethylene tube (Becton-Dickinson, Sparks, Md.) was then introduced from the external into the internal carotid artery, and the former was ligated to hold the tube. TUDCA (Calbiochem-Novabiochem Corp., San Diego, Calif.) was dissolved in phosphate buffer, pH 7.4 at 400 milligrams per milliliter (mg/ml). Saline or TUDCA solution (1 milliliter per kilogram body weight (ml/kg bw)) were injected directly into the internal carotid artery, within 5 minutes. Different concentrations of TUDCA (10, 50, 100, and 200 mg/kg bw) were administered 1 hour prior to, or 1, 3, and 6 hours after collagenase injection. The polyethylene tube was finally removed, the end of the external carotid artery cauterized, and the wound closed. To induce stroke injury, the animals were placed in a stereotaxic apparatus and ICH induced by collagenase infusion (Rosenberg et al., Stroke 1990;21:801-807 and Chesney et al., Stroke 1995;26:312-316). In brief, a midline incision was made through the scalp to expose the skull. […]
At 2 days after collagenase infusion, rats were sacrificed for terminal deoxynucleotidyltransferase-mediated dUTP nick end labeling (TUNEL) of apoptotic cells. […] The number of TUNEL-positive cells was counted on a computer screen grid from at least three random fields (400×) within the region adjacent to the hemorrhagic core for each animal.

[3] = Bile acid analysis of serum and brain; type: in vivo, rat; details: single 100 mg/kg bw arterial dose
From the text: as §1
Normal controls and rats with intrastriatal hematoma were sacrificed 1, 3, and 6 hours after TUDCA or vehicle injection. […] Bile acids were assessed by gas chromatography after organic solvent extraction, purification on Lipidex 1000, liquid-solid extraction, hydrolysis, isolation by lipophilic anion exchange chromatography and conversion to methyl ester-trimethylsilyl ether derivatives (Setchell et al., Gastroenterology 1997;112:226-235). Bile acid concentrations were expressed as nmol/g of tissue or as μmol/l of serum.

[4] = 100 mg/kg bw TUDCA administered at 1 h
[5] = 100 mg/kg bw TUDCA administered at 3 h
[6] = 100 mg/kg bw TUDCA administered at 6 h

concentration at 3 h ([3]; female, Sprague-Dawley, rat, serum, other: injected directly into the internal carotid artery, 3 hours following injection (from 0.3)): 10.6 µM
increase in brain concentrations of the bile acid compared with vehicle-injected controls ([3]; 3 hours): 10 fold
Compound: C[C@H](CCC(=O)NCCS(=O)(=O)O)[C@H]1CC[C@H]2[C@@H]3[C@@H](O)C[C@@H]4C[C@H](O)CC[C@]4(C)[C@H]3CC[C@]12C [TUDCA, tauroursodeoxycholic acid]
hemorrhagic lesions larger in vehicle-injected group compared with TUDCA-treated rats ([1]; 100 mg/kg bw TUDCA 1 hour before collagenase, 2 days): approximately 50%
protective effect on volume of brain lesioned ([1]; 100 mg/kg bw TUDCA 1 hour before or up to 3 hours after hemorrhage, 2 days): 40-50%
protective effect on volume of brain lesioned ([1]; 100 mg/kg bw TUDCA 6 hours after collagenase infusion): partially lost but still evident
Protection (%) ICH core [1, 4]: 47.7 ± 3.2 %
Protection (%) Peri-ICH [1, 4]: 48.6 ± 3.5 %
Protection (%) ICH core [1, 5]: 30.0 ± 18.9 %
Protection (%) Peri-ICH [1, 5]: 42.8 ± 14.9 %
Protection (%) ICH core [1, 6]: 20.9 ± 12.9%
Protection (%) Peri-ICH [1, 6]: 38.7 ± 12.9 %
hemorrhagic lesion volume ([1]; 100 mg/kg bw TUDCA into internal carotid artery 1 hour before collagenase, 2 days after infusion, mean±SEM): 143.9±46.5 mm^3
reduction in lesion volume ([1]; 200 mg/kg bw TUDCA 1 hour before collagenase, 2 days): ~60%
protection of lesion volume ([1]; 10 and 50 mg/kg bw dose regimens, 1 hour before collagenase): significantly less protective
rotational response to apomorphine (collagenase-induced ICH): less than 10 per 5 minutes
number of apoptotic cells (apoptotic versus total cells) ([2]; 100 mg/kg bw TUDCA 1 hour before collagenase, ipsilateral hemisphere, vehicle almost 30%): approximately 10%
TUNEL staining versus vehicle-injected animals ([2]; 100 mg/kg bw TUDCA, time-course 1 hour before to 6 hours after collagenase): remained markedly lower
reduction of apoptosis ([2]; TUDCA at greater dosages (than 100 mg/kg bw), 1 hour before collagenase): > 65%

Reference: patent US20060135494A1, “Methods of treating injuries of the nervous system associated with hemorrhage” (priority 2002, published 2006)
